Results on four compounds are retold here after US20040058868A1, “Methods for identification of compounds modulating insulin resistance” (priority 2002, published 2004).

For series [1], the system named is IRS-1/HDAC2 interaction. The series is described as follows: Coimmunoprecipitation of IRS-1 and HDAC2 in MCF-7 cells. In kind it is cell-based, human. The note with it: MCF-7 cells treated with PMA; IP with anti-IRS-1 or anti-HDAC2. The method, then: (§1) To further validate the IRS-1/HDAC2 interaction, several mammalian cell lines were used. MCF-7 is a human breast adenocarcinoma cell line, HepG2 is a hepatocellular carcinoma cell line and L6 is a rat skeletal muscle cell line. The MCF-7 cell line was chosen since these cells have a high endogenous production of IRS-1. Cells were grown to confluency, treated with IGF-1 or PMA (phorbol myristic acid) for different lengths of time and then harvested in hypotonic cell lysis buffer (comprising 20 mM Hepes, pH 7.6, 20% glycerol, 10 mM NaCl, 1.5 mM MgCl2, 0.2 mM EDTA, 0.1% NP40, 25 mM NaF, 25 mM β-glycerophosphate, 1 mM DTT, 1 mM Na orthovanadate with protease inhibitors). All precleared fractions were matched for protein content and then immunoprecipitated with anti-IRS-1 antibody. […] A similar. experiment was performed the other way around, i.e. HDAC2 was immunoprecipitated from the cell extracts and the subsequent membrane was probed with anti-IRS-1 antibodies.

The test system of series [2] is IRS-1 tyrosine phosphorylation in MCF-7 cells. As to the kind of experiment: IRS-1 tyrosine phosphorylation: immunoprecipitation with anti-IRS-1, western blot with anti-phospho-tyrosine antibodies. In kind it is cell-based, human. The note with it: insulin 10 min, FIG. 3. The method, then:
FIG. 3 illustrates immunoprecipitation of IRS-1 and detection of antiphosphotyrosine. MCF-7 cells were treated as follows: lane 1: insulin 10 min; lane 2: PMA & TSA for 4 h and insulin 10 min; lane 3: PMA for 4 h and insulin 10 min; lane 4: PMA & TSA for 4 h; lane 5: PMA for 4 h; lane 6: control (vehicle);
as §1, with “antibodies. […]” for “antibodies.”

For series [3] the following is noted: clinical trials in humans, reference [26]; cited from earlier work.
Series [4] concerns IRS-1/HDAC2 interaction. The series is described as follows: Coimmunoprecipitation of IRS-1 and HDAC2 in HepG2 cells. The note with it: stimulation with insulin. It is filed as cell-based. The method, then:
To further validate the IRS-1/HDAC2 interaction, several mammalian cell lines were used. MCF-7 is a human breast adenocarcinoma cell line, HepG2 is a hepatocellular carcinoma cell line and L6 is a rat skeletal muscle cell line. The MCF-7 cell line was chosen since these cells have a high endogenous production of IRS-1. […] All precleared fractions were matched for protein content and then immunoprecipitated with anti-IRS-1 antibody. […] A similar. experiment was performed the other way around, i.e. HDAC2 was immunoprecipitated from the cell extracts and the subsequent membrane was probed with anti-IRS-1 antibodies.

For series [5], the system named is IRS-1/HDAC2 interaction. The series is described as follows: Coimmunoprecipitation of IRS-1 and HDAC2 in L6 cells. In kind it is cell-based, rat. Conditions: stimulation with insulin. The method, then: as §1, with “treated with IGF-1 or PMA (phorbol myristic acid) for different lengths of time and then harvested in hypotonic” left out
Series [6] relates to IRS-1 acetylation in MCF-7 cells. As to the kind of experiment: IRS-1 acetylation: immunoprecipitation with anti-IRS-1, western blot with anti-acetyl lysine antibodies. In kind it is cell-based, human. Conditions: MCF-7 cells treated with TSA. The method, then: FIG. 2 illustrates immunoprecipitation of IRS-1 and detection of anti-acetyl-lysine. MCF-7 cells were treated as follows: lane 1: IGF-1 for 10 min; lane 2: IGF-1 for 30 min; lane 3: IGF-1 for 1 h; lane 4: IGF-1 for 6 h; lane 5: IGF-1 for 24 h; lane 6: PMA for 6 h; lane 7: PMA for 6 h and IGF-1 for 10 min; lane 8: PMA for 24 h; lane 9: PMA and TSA for 6 h; lane 10: TSA for 6 h; lane 11: control (vehicle).
as §1, with “antibodies. […]” for “antibodies.”
For orientation: Immunoblotting shows a protein as a band on a membrane.

In the case of `CCCCCCCCCCCCCC(=O)O[C@@H]1[C@@H](C)[C@@]2(O)[C@@H](C=C(CO)C[C@]3(O)C(=O)C(C)=C[C@@H]23)[C@@H]2C(C)(C)[C@]12OC(C)=O` [PMA, phorbol myristic acid], the “interaction between IRS-1 and HDAC2 (coimmunoprecipitation)” value in the series with IRS-1/HDAC2 interaction [1] is recorded as “the interaction is PMA-driven”. In addition, the “insulin-stimulated tyrosine phosphorylation of IRS-1 (insulin resistance)” value in series [2] (PMA 4 h) is “makes the cells insulin resistant”.

Consider `O=C(CCCCCCC(=O)Nc1ccccc1)NO` [SAHA, suberoylanilide hydroxamic acid], for which the tolerability / toxicity entry in series [3] is recorded as “well-tolerated, are not toxic”.

With “insulin: insulin used to stimulate cells”, the “interaction between IRS-1 and HDAC2 (coimmunoprecipitation)” value with IRS-1/HDAC2 interaction [4] and in the series on IRS-1/HDAC2 interaction [5] was “not influenced” throughout.

In the case of `CC(/C=C/C(=O)NO)=C\[C@@H](C)C(=O)c1ccc(N(C)C)cc1` [TSA, Trichostatin A], the “acetylation of IRS-1” value was “significantly pronounced” in series [6] (FIG. 2) and “enhanced” in series [6] (FIG. 2, listed as Trichostatin A). Besides, the “reversal of PMA-induced insulin resistance (tyrosine phosphorylation of IRS-1)” value in series [2] (PMA and TSA simultaneously 4 h) is listed as “insulin resistance can to a large extent be remedied”.
